Measurements taken from publication PMC9945734 (BMC Medicine, 2023).
Read-outs that look alike come from different tables or passages of the source.

How the values were obtained:
KLF5 protein = biological target: T1, KLF5 protein (Homo sapiens, UniProt Q13887); assay: Fluorescence titration (quenching) of KLF5 protein; details: read-out: binding constant Kd
T1 construct: made in house; host or cells: E. coli BL21 DE3
Description: (§1) Wild-type or mutant KLF5 protein at 1 μM in 2 mL PBS was measured for fluorescence spectrum using a fluorescence spectrometer (HORIBA, Kyoto, Japan), and the fluorescence spectra were obtained for wavelengths of 300–500 nm. NTZ with various concentration ranges and various increments were used in the analysis, including 0.1–1 μM with an increment of 0.1 μM, 1–5 μM with an increment of 0.5 μM, 5–10 μM with an increment of 1 μM, and 10–30 μM with an increment of 5 μM. The incubation with NTZ was for 5 s at room temperature. Data were processed and fitted to obtain the binding affinities using the Origin software (OriginLab, Northampton, MA, USA), and Kd values were determined by the responses at […] wavelength.

KLF5^K369R protein = biological target: T2, KLF5^K369R protein (Homo sapiens, UniProt Q13887, K369R); assay: Fluorescence titration (quenching) of KLF5 protein; details: read-out: binding constant Kd
T2 construct: made in house; host or cells: E. coli BL21 DE3
T2 sequence (Q13887 whole entry K369R): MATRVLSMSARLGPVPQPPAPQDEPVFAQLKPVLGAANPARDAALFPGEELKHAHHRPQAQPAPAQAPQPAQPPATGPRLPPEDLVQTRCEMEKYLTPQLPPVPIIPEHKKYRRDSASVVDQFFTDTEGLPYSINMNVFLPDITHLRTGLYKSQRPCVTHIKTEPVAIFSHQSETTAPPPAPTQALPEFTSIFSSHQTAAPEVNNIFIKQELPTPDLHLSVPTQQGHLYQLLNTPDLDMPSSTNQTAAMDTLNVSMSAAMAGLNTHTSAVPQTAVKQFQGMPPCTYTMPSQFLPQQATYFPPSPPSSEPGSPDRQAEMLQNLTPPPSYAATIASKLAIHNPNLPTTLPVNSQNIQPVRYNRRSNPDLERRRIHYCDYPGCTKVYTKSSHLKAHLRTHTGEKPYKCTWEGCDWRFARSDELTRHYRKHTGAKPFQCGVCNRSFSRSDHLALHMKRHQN
Description: as §1

KLF5^K369Q protein = biological target: T3, KLF5^K369Q protein (Homo sapiens, UniProt Q13887, K369Q); assay: Fluorescence titration (quenching) of KLF5 protein; details: read-out: binding constant Kd
T3 construct: made in house; host or cells: E. coli BL21 DE3
T3 sequence (Q13887 whole entry K369Q): as the sequence (Q13887 whole entry K369R) above, with R369Q counted along it
Description: as §1

[1] = test system: PC-3 (KLF5 null) cells expressing KLF5^K369R; assay: CCK-8 cell viability assay; type: cell-based; details: Homo sapiens, CCK-8, 48 h
Description: (§2) According to the manufacturer's instructions, cell viability was measured using a kit from Beyotime Biotechnology. Briefly, cells were seeded onto 96-well plates at 5 × 10^3 cells per well, incubated overnight, and then treated for 48 h with drugs at 0, 0.02, 0.05, 0.14, 0.41, 1.23, 3.7, 11.1, 33.3, and 100 μM. Four drugs were analyzed: furagin, nifuratel, nitazoxanide, and retapamulin. At the end of drug treatment, the medium was removed, the CCK-8 solution was added into each well at 100 μL/well and incubated for 1.5 h at 37°C, and the optical density (OD) was measured at 450 nm using a microplate reader (BioTek).

[2] = test system: DU 145 (KLF5 null) cells expressing KLF5; assay: CCK-8 cell viability assay; type: cell-based; details: Homo sapiens, CCK-8, 48 h
Description: as §2

[3] = test system: PC-3 (KLF5 null) cells expressing KLF5; assay: CCK-8 cell viability assay; type: cell-based; details: Homo sapiens, CCK-8, 48 h
Description: as §2

[4] = test system: DU 145 (KLF5 null) cells expressing KLF5^K369R; assay: CCK-8 cell viability assay; type: cell-based; details: Homo sapiens, CCK-8, 48 h
Description: as §2

PC-3-KQ cells = assay: 3D spheroid invasion assay and screening of FDA-approved drugs; type: cell-based, human; details: for activity at 0.01 µM / activity at 0.1 µM / activity at 1 µM / activity at 10 µM / inhibition at 0.1 µM: Homo sapiens; for activity at 0.01 µM / activity at 0.1 µM / activity at 1 µM / activity at 10 µM: 72 h, read-out: Invasion rates (%) of each drug’s multiple concentrations; for activity at 0.01 µM / activity at 0.1 µM / activity at 1 µM / activity at 10 µM / Invasion rates (%) of each drug’s multiple concentrations (μM): compared to vehicle control; for inhibition at 0.1 µM: read-out: inhibition of cell invasion
Method in brief: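 Cells were clustered into spheroids by centrifugation and grown 3 days, then embedded in matrigel-medium containing drug on day 4 and cultured another 3 days. Drugs were screened at 10 μM first, then at 0–10 μM, in duplicate wells. Invasion area is total area minus core sphere area from phase-contrast images.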

[5] = test system: PC-3 (KLF5 null) cells expressing KLF5^K369Q; assay: CCK-8 cell viability assay; type: cell-based, human; details: Homo sapiens; PC-3 (KLF5 null), KLF5^K369Q; CCK-8, 48 h
Description: as §2
(§3) We also tested a wider range of NTZ concentrations in PC-3-KQ and DU 145-KQ cells using the CCK-8 assay by seeding 2 × 10^3 cells and 2.5 × 10^3 cells onto each well of 96-well plates. PC-3-KQ cells were treated with NTZ at 0, 0.01, 0.1, […], 2.5, and 5 μM, while DU 145-KQ cells were treated with NTZ at 0, 0.01, 0.1, 5, 10, and 20 μM for 0, 24, 48, and 72 h. The number of viable cells was determined using the CCK-8 solution as described above.

[6] = test system: DU 145 (KLF5 null) cells expressing KLF5^K369Q; assay: CCK-8 cell viability assay; type: cell-based, human; details: Homo sapiens; DU 145 (KLF5 null), KLF5^K369Q; CCK-8, 48 h
Description: as §2, §3

[7] = 0.01 μM (first column so headed), secondary screening of 87 hit compounds (Table S1)
[8] = 0.01 μM (first column so headed), third screening of 25 hit compounds (Table S2)
[9] = 0.01 μM (second column so headed), secondary screening of 87 hit compounds (Table S1)
[10] = 0.01 μM (second column so headed), third screening of 25 hit compounds (Table S2)
[11] = 0.1 μM, secondary screening of 87 hit compounds (Table S1)
[12] = 0.1 μM, third screening of 25 hit compounds (Table S2)
[13] = 1 μM, secondary screening of 87 hit compounds (Table S1)
[14] = 1 μM, third screening of 25 hit compounds (Table S2)
[15] = 10 μM, secondary screening of 87 hit compounds (Table S1)
[16] = 10 μM, third screening of 25 hit compounds (Table S2)

T1 sequence (Q13887 whole entry): as the sequence (Q13887 whole entry K369R) above, with R369K counted along it

IC50 [1] [µM] | IC50 [3] [µM] | IC50 [5] [µM] | Compound | IC50 [2] [µM] | IC50 [4] [µM] | activity at 0.01 µM (PC-3-KQ cells; [7]) [%] | activity at 0.01 µM (PC-3-KQ cells; [8]) [%] | activity at 0.01 µM (PC-3-KQ cells; [9]) [%] | activity at 0.01 µM (PC-3-KQ cells; [10]) [%] | activity at 0.1 µM (PC-3-KQ cells; [11]) [%] | activity at 0.1 µM (PC-3-KQ cells; [12]) [%] | activity at 1 µM (PC-3-KQ cells; [13]) [%] | activity at 1 µM (PC-3-KQ cells; [14]) [%] | activity at 10 µM (PC-3-KQ cells; [15]) [%] | activity at 10 µM (PC-3-KQ cells; [16]) [%] | inhibition at 0.1 µM (PC-3-KQ cells) [%] | Invasion rates (%) of each drug’s multiple concentrations (μM) (PC-3-KQ cells; [9]) [%] | Invasion rates (%) of each drug’s multiple concentrations (μM) (PC-3-KQ cells; [11]) [%] | Invasion rates (%) of each drug’s multiple concentrations (μM) (PC-3-KQ cells; [13]) [%] | Invasion rates (%) of each drug’s multiple concentrations (μM) (PC-3-KQ cells; [15]) [%] | further results
 |  |  | CC1(C)CCC(C)(C)c2cc(NC(=O)c3ccc(C(=O)O)cc3)ccc21 [Am80] |  |  |  |  |  |  |  |  |  |  |  |  |  |  |  |  |  | Kd (KLF5 protein): > 30 µM; Kd (KLF5^K369R protein): > 30 µM; Kd (KLF5^K369Q protein): > 30 µM
101 ± 27.9 | 17.3 ± 2.2 | 28.6 ± 1.9 | O=C1CN(/N=C/C=C/c2ccc([N+](=O)[O-])o2)C(=O)N1 [Furagin] | 31.4 ± 4 | 359 ± 127 | 24.8 | 77.1 | 42.2 | 97.5 | 5.95 | 2.26 | 3.36 | 2.3 | 2.18 | 1.29 | > 50 |  |  |  |  | IC50 [6]: 63.3 ± 2.4 µM
18.7 ± 1 | 32 ± 1.6 | 18.6 ± 0.7 | CSCC1CN(/N=C/c2ccc([N+](=O)[O-])o2)C(=O)O1 (stereo not shown) [Nifuratel] | 7.1 ± 0.7 | 14 ± 0.2 | 70 | 59.9 | 82.6 | 93.9 | 60.6 | 7.32 | 8.43 | 3.12 | 0.26 | 1.46 | > 50 |  |  |  |  | IC50 [6]: 16.2 ± 0.8 µM
12.2 ± 1.1 | 1.6 ± 0.3 | 12.6 ± 2.3 | C=C[C@]1(C)C[C@@H](OC(=O)CS[C@@H]2C[C@H]3CC[C@@H](C2)N3C)[C@]2(C)[C@H](C)CC[C@]3(CCC(=O)[C@H]32)[C@@H](C)[C@@H]1O [Retapamulin] | 13.7 ± 2.7 | 11.1 ± 0.8 | 7.43 | 74.4 |  | 94.3 | 7.18 | 4.92 | 7.28 | 1.65 | 4.68 | 2.42 | > 50 |  |  |  |  | IC50 [6]: 14.7 ± 1.5 µM
 |  |  | CCS(=O)(=O)CCn1c([N+](=O)[O-])cnc1C [Tinidazole] |  |  | 78.9 | 89.2 | 90.7 | 88.2 | 47.1 | 90.2 | 6.59 | 8.88 | 2.67 | 2.87 |  |  |  |  |  | 
 |  |  | Acetylspiramycin |  |  |  |  |  |  |  |  |  |  |  |  |  | 96.46 | 96.77 | 87.68 | 2.37 | Invasion rates (%) of each drug’s multiple concentrations (μM) (PC-3-KQ cells; [7]): 96.71%
 |  |  | Daptomycin |  |  |  |  |  |  |  |  |  |  |  |  |  | 96.99 | 95.71 | 88.47 | 1.26 | Invasion rates (%) of each drug’s multiple concentrations (μM) (PC-3-KQ cells; [7]): 96.29%
 |  |  | Gramicidin |  |  |  |  |  |  |  |  |  |  |  |  |  | 107.53 | 94.19 | 93.53 | 0.41 | 
 |  |  | Spiramycin |  |  |  |  |  |  |  |  |  |  |  |  |  | 91.77 | 85.48 | 80.28 | 55.32 | Invasion rates (%) of each drug’s multiple concentrations (μM) (PC-3-KQ cells; [7]): 90.26%
